From paper PMC6271338, “Synthesis and Cytotoxic Evaluation of Alkoxylated Chalcones” (Molecules, 2014)

Experiments:
[1] = system: HepG2 cells; assay: In vitro anti-proliferative SRB assay, HepG2; type: cell-based, human; settings: for IC50 / inhibition at 10 µM: Homo sapiens; for IC50: HepG2, increasing concentrations up to 30 μM, mean ± SD of at least three independent experiments; for SI (CC50 HMLE/IC50 HepG2) / SI (CC50 L02/IC50 HepG2): selectivity index; for SI (CC50 HMLE/IC50 HepG2): HMLE vs HepG2; for SI (CC50 L02/IC50 HepG2): L02 vs HepG2
Protocol: (§1) HepG2 and MCF7 cells were grown in the Eagle’s minimum essential medium with Earle’s balanced salts (MEM-EBSS) medium, HeLa, A549 and L02 cells were grown in Dulbecco’s Modified Eagle Media (DMEM), SW1990 cells were grown in RPMI-1640 medium, and HMLE cell were grown in DMEM/F-12 medium. […]
(§2) Cells were seeded into 96-well plates (4000 cells/well) and incubated at 37 °C in a humidified 5% CO2 atmosphere. After 24 h, the cells were treated with different concentrations of the compounds for 48 h in triplicate to generate dose-response curves. Cell viability was evaluated using the sulforhodamine B (SRB) assay as previous described.

[2] = system: HeLa cells; assay: In vitro anti-proliferative SRB assay, HeLa; type: cell-based, human; settings: for IC50: Homo sapiens, HeLa, increasing concentrations up to 30 μM, mean ± SD of at least three independent experiments; for SI (CC50 HMLE/IC50 Hela) / SI (CC50 L02/IC50 Hela): selectivity index; for SI (CC50 HMLE/IC50 Hela): HMLE vs HeLa; for SI (CC50 L02/IC50 Hela): L02 vs HeLa
Protocol: as §1, §2

[3] = system: MCF-7 cells; assay: In vitro anti-proliferative SRB assay, MCF-7; type: cell-based, human; settings: for IC50: Homo sapiens, MCF7, increasing concentrations up to 30 μM, mean ± SD of at least three independent experiments; for SI (CC50 HMLE/IC50 MCF7) / SI (CC50 L02/IC50 MCF7): selectivity index; for SI (CC50 HMLE/IC50 MCF7): HMLE vs MCF7; for SI (CC50 L02/IC50 MCF7): L02 vs MCF7
Protocol: as §1, §2

[4] = system: A549 cells; assay: In vitro anti-proliferative SRB assay, A549; type: cell-based, human; settings: for IC50: Homo sapiens, A549, increasing concentrations up to 30 μM, mean ± SD of at least three independent experiments; for SI (CC50 HMLE/IC50 A549) / SI (CC50 L02/IC50 A549): selectivity index; for SI (CC50 HMLE/IC50 A549): HMLE vs A549; for SI (CC50 L02/IC50 A549): L02 vs A549
Protocol: as §1, §2

[5] = system: SW1990 cells; assay: In vitro anti-proliferative SRB assay, SW1990; type: cell-based, human; settings: for IC50: Homo sapiens, SW1990, increasing concentrations up to 30 μM, mean ± SD of at least three independent experiments; for SI (CC50 HMLE/IC50 SW1990) / SI (CC50 L02/IC50 SW1990): selectivity index; for SI (CC50 HMLE/IC50 SW1990): HMLE vs SW1990; for SI (CC50 L02/IC50 SW1990): L02 vs SW1990
Protocol: as §1, §2

[6] = Cytotoxicity (SRB) against non-tumoral HMLE cells; type: cell-based, human; settings: human, HMLE cells (non-tumoral human mammary epithelial cells); increasing concentrations up to 100 μM; mean ± SD of at least three independent experiments; read-out: Normal Human Cell Lines, CC50, HMLE
Protocol: (§3) All compounds were also evaluated for their cytotoxic activity against two non-tumoral human cell lines named human mammary epithelial cell (HMLE) and L02 (a human liver cell line) in Table 2 and SI values between the CC50 in non-tumoral cell lines and IC50 in tumoral cells calculated.
as §1
(§4) Cells were seeded into 96-well plates (4000 cells/well) and incubated at 37 °C in a humidified 5% CO2 atmosphere. After 24 h, the cells were treated with different concentrations of the compounds for 48 h in triplicate to generate dose-response curves. Cell viability was evaluated using the sulforhodamine B (SRB) assay as previous described. […] Etoposide was used as the positive control.

[7] = Cytotoxicity (SRB) against non-tumoral L02 cells; type: cell-based, human; settings: human, L02 cells (non-tumoral human liver cell line); increasing concentrations up to 100 μM; mean ± SD of at least three independent experiments; read-out: Normal Human Cell Lines, CC50, L02
Protocol: as §3, §1, §4

[8] = HepG2 cells, 10 μM, SRB assay, mean ± SD of three independent experiments

## COc1cc([C@@H]2c3cc4c(cc3[C@@H](O[C@@H]3O[C@@H]5CO[C@@H](C)O[C@H]5[C@H](O)[C@H]3O)[C@H]3COC(=O)[C@H]23)OCO4)cc(OC)c1O [Etoposide, reference compound]
[1]
  IC50: 5.11 ± 0.45 µM
[1]; [8]
  inhibition at 10 µM: 63.9 ± 0.1%
[2]
  IC50: 3.96 ± 0.17 µM
[3]
  IC50: 20.6 ± 0.34 µM
[4]
  IC50: 3.23 ± 0.28 µM
[5]
  IC50: 29.3 ± 1.73 µM
[6]
  CC50 at 48 h: 6.42 ± 0.39 µM
[7]
  CC50 at 48 h: > 100 µM

## COc1ccc(C(=O)/C=C/c2ccccc2)cc1 [a1, (E)-1-(4-Methoxyphenyl)-3-phenylprop-2-en-1-one]
[1]; [8]
  inhibition at 10 µM: 42.4 ± 2%

## COc1ccc(C(=O)/C=C/c2ccc(Br)cc2)cc1 [a2, (E)-1-(4-Methoxyphenyl)-3-(4-bromophenyl)prop-2-en-1-one]
[1]; [8]
  inhibition at 10 µM: 37.6 ± 4.4%
other
  melting point: 153.7 to 155.1 °C

## COc1ccc(C(=O)/C=C/c2ccc(Br)cc2F)cc1 [a3, (E)-1-(4-Methoxyphenyl)-3-(4-bromo-2-fluorophenyl)prop-2-en-1-one]
[1]; [8]
  inhibition at 10 µM: 41.8 ± 5.9%
other
  melting point: 122.2 to 123.6 °C

## COc1ccc(C(=O)/C=C/c2ccc(F)cc2Br)cc1 [a4, (E)-1-(4-Methoxyphenyl)-3-(2-bromo-4-fluorophenyl)prop-2-en-1-one]
[1]; [8]
  inhibition at 10 µM: 41.2 ± 4.6%
other
  melting point: 98.7 to 101 °C

## COc1ccc(C(=O)/C=C/c2ccc(Br)cc2Cl)cc1 [a5, (E)-1-(4-Methoxyphenyl)-3-(4-bromo-2-chlorophenyl)prop-2-en-1-one]
[1]; [8]
  inhibition at 10 µM: 9 ± 5.6%
other
  melting point: 145.3 to 146.4 °C

## COc1ccc(C(=O)/C=C/c2ccc([N+](=O)[O-])cc2)cc1 [a6, (E)-1-(4-Methoxyphenyl)-3-(4-nitrophenyl)prop-2-en-1-one]
[1]; [8]
  inhibition at 10 µM: 9.8 ± 5%

## COc1ccc(C(=O)/C=C/c2ccccc2OC)cc1 [a8, (E)-1-(4-Methoxyphenyl)-3-(2-methoxyphenyl)prop-2-en-1-one]
[1]; [8]
  inhibition at 10 µM: 61.4 ± 3.4%
other
  melting point: 43.2 to 45.5 °C

## COc1ccc(C(=O)/C=C/c2cccc(OC)c2)cc1 [a9, (E)-1-(4-Methoxyphenyl)-3-(3-methoxyphenyl)prop-2-en-1-one]
[1]; [8]
  inhibition at 10 µM: 59 ± 2.9%
other
  melting point: 95.7 to 97 °C

## COc1ccc(/C=C/C(=O)c2ccc(OC)cc2)cc1 [a10, (E)-1,3-bis(4-Methoxyphenyl)prop-2-en-1-one]
[1]; [8]
  inhibition at 10 µM: 27.7 ± 17.7%

## CCOc1ccc(/C=C/C(=O)c2ccc(OC)cc2)cc1 [a11, (E)-1-(4-Methoxyphenyl)-3-(4-ethoxyphenyl)prop-2-en-1-one]
[1]; [8]
  inhibition at 10 µM: 13.1 ± 8.4%
other
  melting point: 106.3 to 107.9 °C

## COc1ccc(C(=O)/C=C/c2cccc(OC)c2OC)cc1 [a12, (E)-1-(4-Methoxyphenyl)-3-(2,3-dimethoxyphenyl)prop-2-en-1-one]
[1]; [8]
  inhibition at 10 µM: 66.3 ± 4.2%

## COc1ccc(C(=O)/C=C/c2cc(OC)ccc2OC)cc1 [a13, (E)-1-(4-methoxyphenyl)-3-(2,5-dimethoxyphenyl)prop-2-en-1-one]
[1]; [8]
  inhibition at 10 µM: 77 ± 2.2%
other
  melting point: 54.7 to 56.3 °C

## COc1ccc(C(=O)/C=C/c2c(OC)cccc2OC)cc1 [a14, (E)-1-(4-Methoxyphenyl)-3-(2,6-dimethoxyphenyl)prop-2-en-1-one]
[1]; [8]
  inhibition at 10 µM: 78.1 ± 4.7%
other
  melting point: 123.7 to 125.7 °C

## COc1ccc(C(=O)/C=C/c2ccc(OC)c(OC)c2)cc1 [a15, (E)-1-(4-Methoxyphenyl)-3-(3,4-dimethoxyphenyl)prop-2-en-1-one]
[1]; [8]
  inhibition at 10 µM: 65 ± 17.6%

## COc1ccc(C(=O)/C=C/c2cc(OC)cc(OC)c2)cc1 [a16, (E)-1-(4-Methoxyphenyl)-3-(3,5-dimethoxyphenyl)prop-2-en-1-one]
[1]
  IC50: 9.2 ± 0.31 µM
  SI (CC50 HMLE/IC50 HepG2): 0.4
  SI (CC50 L02/IC50 HepG2): 1.0
[1]; [8]
  inhibition at 10 µM: 70.6 ± 2%
[2]
  IC50: 12.4 ± 0.34 µM
  SI (CC50 HMLE/IC50 Hela): 0.3
  SI (CC50 L02/IC50 Hela): 0.7
[3]
  IC50: 23.1 ± 0.79 µM
  SI (CC50 HMLE/IC50 MCF7): 0.1
  SI (CC50 L02/IC50 MCF7): 0.4
[4]
  IC50: 21.2 ± 0.55 µM
  SI (CC50 HMLE/IC50 A549): 0.2
  SI (CC50 L02/IC50 A549): 0.4
[5]
  IC50: 17.8 ± 0.07 µM
  SI (CC50 HMLE/IC50 SW1990): 0.2
  SI (CC50 L02/IC50 SW1990): 0.5
[6]
  CC50 at 48 h: 3.28 ± 0.31 µM
[7]
  CC50 at 48 h: 8.87 ± 1.83 µM
other
  melting point: 87.6 to 89.1 °C

## COc1ccc(C(=O)/C=C/c2ccc(OC)c(OCc3ccccc3)c2)cc1 [a17, (E)-1-(4-Methoxyphenyl)-3-(3-(benzyloxy)-4-methoxyphenyl)prop-2-en-1-one]
[1]; [8]
  inhibition at 10 µM: 44.1 ± 6.2%
other
  melting point: 115 to 118.2 °C

## COc1ccc(C(=O)/C=C/c2ccc(OC)c(OC)c2OC)cc1 [a18, (E)-1-(4-Methoxyphenyl)-3-(2,3,4-trimethoxyphenyl)prop-2-en-1-one]
[1]; [8]
  inhibition at 10 µM: 31.8 ± 7.3%
other
  melting point: 94.4 to 96.5 °C

## COc1ccc(C(=O)/C=C/c2cc(OC)c(OC)cc2OC)cc1 [a19, (E)-1-(4-Methoxyphenyl)-3-(2,4,5-trimethoxyphenyl)prop-2-en-1-one]
[1]; [8]
  inhibition at 10 µM: 38.1 ± 10.3%
other
  melting point: 122.1 to 123.7 °C

## COc1cccc(OC)c1/C=C/C(=O)c1ccccc1 [b1, (E)-1-Phenyl-3-(2,6-dimethoxyphenyl)prop-2-en-1-one]
[1]
  IC50: 21 ± 1.75 µM
  SI (CC50 HMLE/IC50 HepG2): 0.5
  SI (CC50 L02/IC50 HepG2): 1.6
[2]
  IC50: > 30 µM
  SI (CC50 HMLE/IC50 Hela): <0.3
  SI (CC50 L02/IC50 Hela): <1.1
[3]
  IC50: 28.18 ± 0.04 µM
  SI (CC50 HMLE/IC50 MCF7): 0.3
  SI (CC50 L02/IC50 MCF7): 1.2
[4]
  IC50: > 30 µM
  SI (CC50 HMLE/IC50 A549): <0.3
  SI (CC50 L02/IC50 A549): <1.1
[5]
  IC50: > 30 µM
  SI (CC50 HMLE/IC50 SW1990): <0.3
  SI (CC50 L02/IC50 SW1990): <1.1
[6]
  CC50 at 48 h: 9.47 ± 0.39 µM
other
  melting point: 52.6 to 54.7 °C

## COc1cccc(OC)c1/C=C/C(=O)c1ccccc1C [b2, (E)-1-(2-Methylphenyl)-3-(2,6-dimethoxyphenyl)prop-2-en-1-one]
[1]
  IC50: 14.1 ± 1.84 µM
  SI (CC50 HMLE/IC50 HepG2): 1.1
  SI (CC50 L02/IC50 HepG2): 2.5
[2]
  IC50: 18.4 ± 0.75 µM
  SI (CC50 HMLE/IC50 Hela): 0.8
  SI (CC50 L02/IC50 Hela): 1.9
[3]
  IC50: 19.1 ± 2.11 µM
  SI (CC50 HMLE/IC50 MCF7): 0.8
  SI (CC50 L02/IC50 MCF7): 1.9
[4]
  IC50: 25.5 ± 4.14 µM
  SI (CC50 HMLE/IC50 A549): 0.6
  SI (CC50 L02/IC50 A549): 1.4
[5]
  IC50: > 30 µM
  SI (CC50 HMLE/IC50 SW1990): <0.5
  SI (CC50 L02/IC50 SW1990): <1.2
[6]
  CC50 at 48 h: 15 ± 0.78 µM
[7]
  CC50 at 48 h: 35.9 ± 3.4 µM
other
  melting point: 79.8 to 81.4 °C

## (E)-1-(4-Methoxyphenyl)-3-(4-carbonylphenyl)prop-2-en-1-one [a7]
[1]; [8]
  Inhibition (%): 32.7 ± 3.0%
